Some test systems named below: SF-268 CNS; M14 melanoma; CAKI-1 renal; OVCAR-8 ovarian; SN12C renal; EKVX NSCLC; NCI-H460 lung; CCRF-CEM leukemia; A549 NSCLC; SK-OV-3 ovarian.
Holding throughout (experiment): inhibition of tumour cell growth, NCI panel, 48 h

Values joined by “and” are separate entries in the source; they are usually repeats but may differ in a detail not shown here. Identical values can stand only once.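 Results reflect a 48-hour exposure of cells in 96-well plates to compound at five concentrations. GI50: concentration for 50% inhibition of growth. TGI: concentration producing complete growth inhibition.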

For `CCCC[P+](c1ccccc1)(c1ccccc1)c1ccccc1`, the GI50 in the experiment with SF-268 CNS was 5.66 µM; with M14 melanoma it was 6.79 µM; in the experiment with CAKI-1 renal, above 100 µM; in the experiment with OVCAR-8 ovarian, 2.68 µM; in the experiment with SN12C renal, 4.35 µM; in the experiment on EKVX NSCLC it was 1 µM. The GI50 with NCI-H460 lung is 1.96 µM; in the experiment with CCRF-CEM leukemia it was 1.72 µM; in the experiment on A549 NSCLC it was 4.4 µM; in the experiment with SK-OV-3 ovarian, 13.4 µM. Besides, the TGI with SF-268 CNS, in the experiment on M14 melanoma, in the experiment with CAKI-1 renal, with OVCAR-8 ovarian, with SN12C renal and in the experiment with EKVX NSCLC was above 100 µM each time. Besides, the TGI with NCI-H460 lung is 24.7 µM; with CCRF-CEM leukemia, above 100 µM; with A549 NSCLC it was above 100 µM; with SK-OV-3 ovarian, above 100 µM.

Turning to `O=C(Nc1cccc(C(F)(F)F)c1)c1cccc(NC2=C(Cl)C(=O)N(Cc3ccccc3)C2=O)c1`, the GI50 is 5.96 µM in the experiment on SF-268 CNS; 3.68 µM in the experiment on M14 melanoma; 6.5 µM with CAKI-1 renal; 15.7 µM in the experiment with OVCAR-8 ovarian; 14.9 µM with SN12C renal; 68.5 µM in the experiment on EKVX NSCLC. For the same compound, the GI50 is 8.76 µM in the experiment on NCI-H460 lung, 1.87 µM with CCRF-CEM leukemia, 17 µM with A549 NSCLC and 79.1 µM in the experiment on SK-OV-3 ovarian. Also, the TGI in the experiment with SF-268 CNS is 40.9 µM; in the experiment with M14 melanoma it was 14.3 µM; in the experiment with CAKI-1 renal, above 100 µM; in the experiment with OVCAR-8 ovarian it was 66.1 µM; with SN12C renal, above 100 µM; in the experiment with EKVX NSCLC it was above 100 µM. Further, the TGI in the experiment on NCI-H460 lung is above 100 µM; with CCRF-CEM leukemia, 51.6 µM; in the experiment on A549 NSCLC, above 100 µM; with SK-OV-3 ovarian, above 100 µM.

In the case of `C#CCOc1ccc2ncnc(Nc3ccc(NC(=O)CCl)cc3)c2c1`, the GI50 with SF-268 CNS was 4.67 µM; in the experiment on M14 melanoma, 9.4 µM; in the experiment on CAKI-1 renal, 11.3 µM; in the experiment on OVCAR-8 ovarian, 5.15 µM; in the experiment with SN12C renal, 6.4 µM; with EKVX NSCLC, 10.9 µM. Further, the GI50 in the experiment on NCI-H460 lung is 10.6 µM; with CCRF-CEM leukemia it was 2.38 µM; with A549 NSCLC, 13.4 µM; in the experiment on SK-OV-3 ovarian, 12.5 µM. Further, the TGI in the experiment with SF-268 CNS is 22.3 µM; in the experiment on M14 melanoma it was 27.7 µM; in the experiment with CAKI-1 renal, 23.6 µM; with OVCAR-8 ovarian, 63.4 µM; in the experiment on SN12C renal, 36.9 µM; in the experiment with EKVX NSCLC, 33.2 µM. In addition, the TGI was 30.1 µM with NCI-H460 lung, 12.2 µM with CCRF-CEM leukemia, 39.7 µM in the experiment on A549 NSCLC and 38.6 µM with SK-OV-3 ovarian.

As to `Oc1ccc(/C=N/Nc2nc3ccccc3s2)c(O)c1`, the GI50 with SF-268 CNS is 1.11 µM; in the experiment with M14 melanoma, 1.38 µM; with CAKI-1 renal, 1.07 µM; in the experiment on OVCAR-8 ovarian, 1.65 µM; in the experiment with SN12C renal it was 2.09 µM; in the experiment on EKVX NSCLC it was 2.86 µM. Also, the GI50 in the experiment with NCI-H460 lung is 1.78 µM; with CCRF-CEM leukemia, 0.717 µM; with A549 NSCLC it was 2.54 µM; in the experiment with SK-OV-3 ovarian it was 2.14 µM. Also, the TGI in the experiment with SF-268 CNS was above 100 µM; in the experiment on M14 melanoma, 12.1 µM; in the experiment with CAKI-1 renal it was 15.7 µM; with OVCAR-8 ovarian, above 100 µM; in the experiment on SN12C renal, 57.9 µM; in the experiment with EKVX NSCLC, above 100 µM. In addition, the TGI is 5.21 µM with NCI-H460 lung, above 100 µM in the experiment on CCRF-CEM leukemia, 51.9 µM in the experiment on A549 NSCLC and 8.93 µM in the experiment on SK-OV-3 ovarian.

As to `CN(/N=C/c1ccnc2ccccc12)c1ccc([N+](=O)[O-])cc1[N+](=O)[O-]`, the TGI in the experiment with SF-268 CNS, with M14 melanoma, with CAKI-1 renal, in the experiment on OVCAR-8 ovarian, in the experiment on SN12C renal and in the experiment on EKVX NSCLC was above 100 µM throughout. In addition, the TGI in the experiment on NCI-H460 lung, with CCRF-CEM leukemia, in the experiment on A549 NSCLC and with SK-OV-3 ovarian was above 100 µM each time.

With `CN(C)c1nc(N(C)C)n2nc(-c3ccccc3[N+](=O)[O-])nc2n1`, the TGI with SF-268 CNS, with M14 melanoma, in the experiment on CAKI-1 renal, with OVCAR-8 ovarian, with SN12C renal and with EKVX NSCLC was above 100 µM in each case. Also, the TGI with NCI-H460 lung, with CCRF-CEM leukemia, in the experiment with A549 NSCLC and in the experiment on SK-OV-3 ovarian was above 100 µM throughout.

With `CCCC(=O)NC(c1ccc2c(c1)OCO2)c1ccc2cccnc2c1O` (stereo unspecified), the GI50 with SF-268 CNS was 1.46 µM; in the experiment with M14 melanoma, 1.08 µM; in the experiment on CAKI-1 renal, 0.669 µM; with OVCAR-8 ovarian, 1.48 µM; with SN12C renal it was 2.28 µM; in the experiment on EKVX NSCLC it was 1.73 µM. Also, the GI50 in the experiment on NCI-H460 lung was 0.527 µM; in the experiment on CCRF-CEM leukemia it was 0.46 µM; with A549 NSCLC, 2.27 µM; in the experiment on SK-OV-3 ovarian it was 1.89 µM. Moreover, the TGI in the experiment on SF-268 CNS was above 100 µM; in the experiment with M14 melanoma, 20.6 µM; with CAKI-1 renal, above 100 µM; with OVCAR-8 ovarian, above 100 µM; in the experiment on SN12C renal, above 100 µM; in the experiment with EKVX NSCLC, 21.4 µM. For the same compound, the TGI in the experiment with NCI-H460 lung is 10.6 µM; in the experiment with CCRF-CEM leukemia it was above 100 µM; with A549 NSCLC, above 100 µM; with SK-OV-3 ovarian, 29.7 µM.

`CC(C)c1cc(CNc2nc(Nc3cc(C4CC4)[nH]n3)cc(N3CCN(C)CC3)n2)on1`: the GI50 is 1.7 µM and 0.277 µM in the experiment on SF-268 CNS; 1.88 µM and 1.12 µM in the experiment with CAKI-1 renal; 3.27 µM and 0.42 µM in the experiment on OVCAR-8 ovarian; 0.587 µM with EKVX NSCLC; 4.62 µM and 1.02 µM in the experiment with CCRF-CEM leukemia; 0.904 µM and 0.335 µM with SK-OV-3 ovarian. The TGI with SF-268 CNS was > 10 µM and 2.25 µM; in the experiment with M14 melanoma it was > 10 µM and 2.51 µM; with CAKI-1 renal, > 10 µM and 4.09 µM; with OVCAR-8 ovarian, > 10 µM and 14.8 µM; in the experiment on SN12C renal, > 10 µM and 15.1 µM; with EKVX NSCLC, above 10 µM. Further, the TGI in the experiment with NCI-H460 lung was > 10 µM and 1.42 µM; in the experiment with CCRF-CEM leukemia it was above 100 µM; in the experiment on A549 NSCLC, > 10 µM and 11.8 µM; in the experiment on SK-OV-3 ovarian it was 4.45 µM and 5.4 µM.

For `Fc1ccc(F)c(C2SCc3nc4ccccc4n32)c1` (stereo unspecified), the TGI in the experiment on SF-268 CNS, with M14 melanoma, in the experiment on CAKI-1 renal, in the experiment on OVCAR-8 ovarian, with SN12C renal and with EKVX NSCLC was above 100 µM in each case. Further, the TGI in the experiment with NCI-H460 lung, in the experiment with CCRF-CEM leukemia, in the experiment on A549 NSCLC and in the experiment on SK-OV-3 ovarian was above 100 µM each time.

These data come from PubChem BioAssay (NCI).
